Legend:
in vivo = settings: mouse
Method: The compound was administered at a dose of 5 mg/kg i.v. and at two doses (5 and 15 mg/kg) i.p. Before the dose (time 0) and up to 8 h at different time points following compound administration, three to five mice per time point were exsanguinated while under light ketamine/xylazine anesthesia. Blood and brains were harvested to the last measured point, whereas liver, kidneys, and lungs were collected at 0.25, 0.5, and 1 h. Serum and tissues were stored at −80 °C until assayed.
Tissues (liver, kidney, brain, and lung) were homogenized with water in a 1:5 ratio (w/v). Prior to the extraction, 100 μL of the plasma samples or 500 μL of tissue homogenates containing calibrators or authentic samples were spiked with 10 μL of IS working solution in a snap-cap microcentrifuge tubes and vortexed (Reax top, Heidolph, Schwabach, Germany) for 15 s. The serum and tissue samples were then alkalized with, respectively, 20 μL or 50 μL of 4 M sodium hydroxide solution, mixed briefly on the vortex mixer, and extracted with 1 mL of ethyl acetate/hexane (30:70, v/v) mixture by mixing for 20 min on a shaker (VXR Vibrax, IKA, Staufen, Germany). Then samples were centrifuged (EBA 12 R, Hettich, Germany) at 8000 g for 15 min and the organic layer of each sample was transferred to a new snap-cap microcentrifuge tube containing 200 μL of a methanol/0.1 M sulfuric acid mixture (1:9, v/v). Subsequently the samples were vortexed (20 min) and centrifuged again (8000 g, 15 min). Finally, the organic layer was discarded and 10–50 μL of the acidic layer was transferred to the autosampler vials (4 °C).
The HPLC system (LaChrom Elite, Merck Hitachi) consisted of the following components: an L-2130 pump, an L-2200 autosampler with a 100 μL sample loop, an L-2350 oven, and an L-2485 fluorescence detector. Excitation and emission wavelengths were set to 260 nm and 330 nm, respectively. Analysis was performed at a temperature of 25 °C on a 250 mm × 4 mm LiChrospher 100 RP-18 column from Merck Millipore (Germany), filled with 5 μm particles, protected with LiChroCART precolumn (10 μm particle size). The mobile phase containing acetonitrile and 20 mM potassium dihydrogen phosphate buffer (pH 4.5) in a 7:3 (v/v) ratio was filtered through the 0.45 µm membrane filter (Supelco Inc., Mainz, Germany) before use and pumped at a flow rate of 1.5 mL/min. […] The method was validated for serum, brain, liver kidney, and lungs.
Both one- and two-compartment pharmacokinetic models were tested. Bioavailability was estimated as a model parameter (F). […] The maximum concentration (Cmax) and the time to reach peak concentration (tmax) were obtained directly from the concentration–time data. The terminal elimination rate constant (λz) was assessed using linear regression. Terminal half-life (t0.5λz) was calculated as ln2/λz. The area under the concentration–time curve from 0 to last measured point (AUC0–last) was calculated using the linear trapezoidal rule. Non-compartmental and model-dependent analyses were performed using Phoenix WinNonlin version 6.3 (Pharsight Corp., Mountain View, CA, USA). The final pharmacokinetic model was selected on the basis of visual inspection of the fitting, examination of residuals, parameter precision, Akaike Information Criteria, and Schwarz Criteria.

[1] = tested on: acute thermal pain (hot plate); test: hot plate test; type: in vivo; settings: mice, 30 mg/kg i.p., 30 min before test; saline control 17.93 ± 1.04 s
Method: The hot plate test was performed according to classical method described in Eddy and Leimbach with modifications. At the beginning, animals were tested for their baseline pain sensitivity threshold. For further studies, only mice that fulfilled the criterium of pain response ≤30 s were used. […] The latency to pain response (licking the hind paw or jumping) was measured. The cut-off time was set to up to 60 s to avoid tissue damage, and mice not responding within 60 s were removed from the apparatus and assigned the score of 60 s.

capsaicin-induced pain = test: capsaicin test; type: in vivo; settings: mice, all doses (10, 15 and 30 mg/kg i.p.)
Method: The mice received an intraperitoneal (i.p.) injection of either the test compound or a control solution. After 30 min, an intraplantar injection of 1.6 µg capsaicin in a 20 μL solution of 0.9% NaCl was administered to the right hind paw. Right after the capsaicin injection, the animals were individually placed into glass containers and observed for the subsequent 5 min. During this observation period, the time that each animal spent licking or biting the injected paw was recorded.

[2] = tested on: histamine-induced pruritus; test: histamine-induced pruritus; type: in vivo; settings: mice
Method: The area (around 2 cm^2) of the nape of mice was shaved at least 2 days prior to experiments. On the day of the experiment, each mouse was individually placed in plastic chambers (15 × 15 × 30 cm). After the 30 min period of habituation, the mice received an intradermal (i.d.) injection of histamine dihydrochloride (10 µmol/site), chloroquine (CQ, 200 µg/site), or SLIGRL-NH2 (40 nmol/site), which were dissolved in physiological saline and administrated at the constant volume of 20 μL. Immediately following the injection, scratching (series of movements considered as a single scratching bout usually consisted of three single scratches) of the injected site by the hind paw was counted for 60 min, 30 min, or 45 min after histamine, CQ, and SLIGRL-NH2 injection, respectively.

H3R = tested on: H3R; design: method as in PMID 28797771; settings: read-out: IC50, cAMP accumulation assay (H3R antagonist potency); cited from earlier work
[3] = tested on: (R)-(-)-α-methylhistamine-induced dipsogenia; design: method as in PMID 28797771; settings: rats; cited from earlier work
[4] = target: human histamine H1 receptor; design: method as in PMID 28797771; settings: cited from earlier work
eqBuChE = tested on: eqBuChE; design: method as in PMID 34208297; settings: cited from earlier work
hMAO B = tested on: hMAO B; design: method as in PMID 34208297; settings: cited from earlier work
[5] = target: human histamine H4 receptor; settings: read-out: Ki, human histamine H4 receptor; cited from earlier work
[6] = up to 10 μM; cited from earlier work

For `O=C(O)C(=O)O.c1ccc(-c2ccc(OCCCCCN3CCCCCC3)cc2)cc1` [Compound E153, 1-(5-(4-Phenylphenoxy)pentyl)azepane hydrogen oxalate], the “Vc (volume of the central compartment)” value (in vivo) was 6.39 L/kg, the half-life (in vivo) was 41.6 min and the “k12 (first-order distribution rate constant)” value (in vivo) was 0.33 h⁻¹. The “k21 (first-order distribution rate constant)” value (in vivo) was 0.19 h⁻¹, the k el (in vivo) was 0.000278 s⁻¹ and the “time of high (peak) concentrations in brain tissue” value (in vivo) was 0.5 to 1 h. For the same compound, the “k01 (first-order absorption rate constant, ka)” value (in vivo; ip) was 2.32 h⁻¹, the Kp (in vivo; ip, 5 mg/kg) was 28.5 and the “brain t0.5λz” value (in vivo; ip, 5 mg/kg) was 1.03 h. The Kp (in vivo; ip, 15 mg/kg) was 14.7, the “brain Cmax” value (in vivo; ip, 15 mg/kg) was 11,682.69 ng/g and the “brain t0.5λz” value (in vivo; ip, 15 mg/kg) was 1.46 h. The Kp (in vivo; iv, 5 mg/kg) was 15.7, the Tmax (in vivo; iv, 5 mg/kg) was 15 min and the “brain t0.5λz” value (in vivo; iv, 5 mg/kg) was 0.90 h. For the same compound, the “highest concentration in liver” value (in vivo; iv, 5 mg/kg) was 5.32 µg/g, the “highest concentration in lung tissue” value (in vivo; iv, 5 mg/kg) was 43.13 µg/g and the “latency time of the pain reaction, hot plate test” value [1] was 37.60 ± 6.13 s. For the same compound, the “paw licking or biting behavior, capsaicin test” value (capsaicin-induced pain) was “significantly decreased”, the “activity in histamine-induced pruritus” value ([2]; 5 mg/kg i.p.) was “active” and the “scratching behavior, histamine-induced pruritus” value ([2]; i.p. 30 min before i.d. histamine) was “significantly reduced scratching behavior”. The IC50 (H3R) was 9 nM, the “ED50, (R)-(-)-α-methylhistamine-induced dipsogenia” value [3] was 1.75 mg/kg and the Ki [4] was 1270 nM. The IC50 (eqBuChE) was 590 nM, the IC50 (hMAO B) was 240 nM and the Ki [5] was 22000 nM. For the same compound, the “mutagenicity in the AMES test” value [6] was “non-mutagenic”.
